# Assay results taken from US9963433B2, “Anticancer drugs including the chemical structures of an androgen receptor ligand and a histone deacetylase inhibitor” (Wayne State University, priority 2016, dated 2018).
# How the values were obtained:
# [1] = tested on: DLC1 mRNA in C4-2 cells; test: In situ HDACi activity: DLC1 mRNA in C4-2 cells; assay type: cell-based; conditions: 48 h, normalized to GAPDH mRNA, FIG. 2F
# Experimental: FIGS. 2A-2F show measurement of intrinsic and in situ HDACi activities. […]. IC50 values were calculated from nonlinear regression plots using GraphPad Prism5 software. (2B) Enz, 1002 and 3-52 were tested against HeLa cell nuclear extract at 10 μM and 25 μM and TSA (1 μM) was used as positive control. […] Recombinant HDAC6 was incubated with each drug at the indicated concentrations. IC50 values were calculated from nonlinear regression plots using GraphPad Prism5 software. (2D) Enz, 1002 and 3-52 were tested against recombinant HDAC6 at 10 μM and 25 μM and TSA (1 μM) was used as positive control. […]
# Cell Culture and Reagents. LNCaP and 22Rv1 cell lines were from American Type Culture Collection (Manassas, Va.). C4-2 cells were kindly provided by Dr. Edwin Sanchez (University of Toledo). LNCaP and C4-2 cells were routinely grown at 37° C. in 5% CO2 in RPMI 1640 medium supplemented with 10% FBS (Invitrogen); 100 units/ml penicillin, 100 μg/ml streptomycin, 2 mM L-glutamine mixture (Invitrogen); and sodium pyruvate (1 mM) (Invitrogen). 22Rv1 cells were grown in RPMI 1640 medium supplemented with 10% FBS (Invitrogen); 100 units/ml penicillin, 100 μg/ml streptomycin, 2 mM L-glutamine mixture (Invitrogen). Affinity-purified rabbit anti-human antibody to AR (sc-816) and mouse anti-human antibody to GAPDH (sc-47724) were purchased from Santa Cruz Biotechnology (Santa Cruz, Calif.). Affinity-purified rabbit anti-human antibody to Hsp90 (C45G5) #4877 and rabbit anti-human antibody to acetylated lysine #9441 were purchased from Cell Signaling Technology. R1881 was kindly provided by Dr. Stephan Patrick (Karmanos Cancer Institute). All experiments were conducted using phenol-red free growth media. For hormone depletion, cells were grown in phenol-red free RPMI 1640 medium supplemented with 10% charcoal stripped FBS (Sigma-Aldrich) which was heat inactivated at 56° C. for thirty minutes, and a mixture of 100 units/ml penicillin, 100 μg/ml streptomycin and 2 mM L-glutamine for 96 h.
# RNA isolation, Reverse Transcription, and Real Time PCR. Total RNA was isolated from cells using the RNeasy Mini Kit (Qiagen). Reverse transcription PCR was then performed using 500 ng of total RNA with random primers and using the high-capacity complementary DNA Archive kit (Applied Biosystems). The complementary DNA from this reaction was measured using quantitative real time PCR using the StepONE Plus Real Time PCR system (Life Technologies Corporation, Carlsbad, Calif.). All reactions were performed in triplicate and normalized to glyceraldehyde-3-phosphate-dehydrogenase values in the same samples. All primers and Taqman probes were purchased from the applied Biosystems inventory (Invitrogen) (Patki et al., 2015).
# . […]
# [2] = target: T1, AR (Homo sapiens, UniProt P10275, T878A); test: Western blot of AR protein in C4-2 cells; assay type: cell-based; conditions: 1 μM to 10 μM, 24 h, relative to GAPDH, FIG. 4A
# T1 construct: endogenous in cells; host or cells: C4-2 cells
# T1 sequence (P10275 1-920 T878A): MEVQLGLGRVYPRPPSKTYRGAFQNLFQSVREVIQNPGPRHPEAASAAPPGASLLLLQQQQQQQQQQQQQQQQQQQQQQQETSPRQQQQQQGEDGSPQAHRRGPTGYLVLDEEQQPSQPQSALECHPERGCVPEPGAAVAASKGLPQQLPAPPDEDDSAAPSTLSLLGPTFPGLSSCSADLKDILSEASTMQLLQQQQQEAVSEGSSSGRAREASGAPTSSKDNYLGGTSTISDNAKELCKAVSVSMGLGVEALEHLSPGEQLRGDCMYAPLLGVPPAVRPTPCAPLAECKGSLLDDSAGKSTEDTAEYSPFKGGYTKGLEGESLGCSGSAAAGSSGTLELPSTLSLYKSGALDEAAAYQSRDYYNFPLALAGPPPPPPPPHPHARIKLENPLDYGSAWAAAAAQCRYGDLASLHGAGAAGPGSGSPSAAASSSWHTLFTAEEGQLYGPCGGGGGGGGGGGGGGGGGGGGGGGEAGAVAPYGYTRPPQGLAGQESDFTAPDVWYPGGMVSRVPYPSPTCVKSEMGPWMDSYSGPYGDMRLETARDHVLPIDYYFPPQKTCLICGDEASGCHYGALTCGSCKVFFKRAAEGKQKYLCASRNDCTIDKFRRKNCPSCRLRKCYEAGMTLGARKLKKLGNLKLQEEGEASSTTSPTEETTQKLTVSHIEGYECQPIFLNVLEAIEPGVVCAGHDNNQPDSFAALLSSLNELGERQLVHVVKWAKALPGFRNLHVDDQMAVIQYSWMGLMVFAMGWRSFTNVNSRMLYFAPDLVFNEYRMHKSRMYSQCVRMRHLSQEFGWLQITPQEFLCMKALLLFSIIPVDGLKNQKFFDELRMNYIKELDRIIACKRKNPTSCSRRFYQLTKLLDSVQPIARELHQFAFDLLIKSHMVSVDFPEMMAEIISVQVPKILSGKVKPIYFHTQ
# Experimental: Cells were then harvested for western blot analysis using antibody to AR (4A), HSP90 (4B), Acetyl-Lysine (4C) or GAPDH (loading control). ImageJ software was used to determine the intensities of the bands relative to the vehicle control for each protein. The values were then divided by the values for GAPDH within the same samples.
# Western Blot Analysis. Cells were washed once with phosphate buffered saline (PBS) and then lysed with RIPA buffer (150 mM NaCl, 1% Nonidet P-40, 0.5% sodium deoxycholate, 0.1% SDS, 50 mM Tris of pH 8.0) containing a protease inhibitor cocktail (Pierce, Thermo Fisher Scientific). The cell lysates were then incubated on ice for 40 minutes. Total protein concentrations were estimated using the Bradford Assay (Bio-Rad). Protein samples (10-40 ug) were heated at 95° C. for 5 minutes and resolved by electrophoresis on 8% polyacrylamide-SDS gels and electrophoretically transferred to PVDF membranes (Millipore, Billerica, Mass.). The membranes were then probed overnight at 4° C. with the appropriate primary antibody followed by the appropriate horseradish peroxidase-conjugated secondary antibody.
# [3] = tested on: AR chromatin association at KLK3 ARE enhancer elements; test: ChIP of AR at KLK3 enhancer in C4-2 cells; conditions: compound 10 μM, R1881 1 nM or 10 nM, 2 h, FIG. 3C
# Experimental: (3C) C4-2 cells plated in hormone-depleted medium were treated with either vehicle, R1881, or the indicated compound for 2 h. Cells were harvested and subjected to ChIP using AR antibody. Taqman probes targeting ARE enhancer elements associated with the KLK3 gene were used to quantify the immunoprecipitated chromatin.
# Chromatin Immunoprecipitation (ChIP). […] The ChIP signals were measured by quantitative real time PCR analysis of the immunoprecipitated products.
# As a target site for the ChIP assay, the well-established AR binding enhancer elements located 4 kb upstream of the transcription initiation site of the KLK3 gene was chosen.
SMILES,DLC1 mRNA expression [1],AR protein level (degradation) [2],chromatin association of AR (ChIP signal) [3]
"CC1(C)C(=O)N(c2ccc(C#N)c(C(F)(F)F)c2)C(=S)N1c1ccc(C(=O)NCCCCCCC(=O)NO)c(F)c1 [Compound 2-75, 4-(3-(4-cyano-3-(trifluoromethyl)phenyl)-5,5-dimethyl-4-oxo-2-thioxoimidazolidin-1-yl)-2-fluoro-N-(7-(hydroxyamino)-7-oxoheptyl)benzamide]",poor inducers of DLC1 mRNA compared with SAHA,more efficiently induced AR protein degradation,basal ChIP signal
"CC1(C)C(=O)N(c2ccc(C#N)c(C(F)(F)F)c2)C(=S)N1c1ccc(/C=C/C(=O)NO)c(F)c1 [Compound 1005, (E)-3-(4-(3-(4-cyano-3-(trifluoromethyl)phenyl)-5,5-dimethyl-4-oxo-2-thioxoimidazolidin-1-yl)-2-fluorophenyl)-N-hydroxyacrylamide]",poor inducers of DLC1 mRNA compared with SAHA,more efficiently induced AR protein degradation,
"CNC(=O)c1ccc(N2C(=S)N(c3ccc(C#N)c(C(F)(F)F)c3)C(=O)C2(C)C)cc1F [Enz, Enzalutamide, reference compound]",had no effect,,basal ChIP signal
